Reference: ChEMBL document CHEMBL1201862, “PubChem BioAssay data set” (2004)
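Where inhibition never reached the appropriate level, the endpoint shown equals the highest concentration tested. Otherwise, values were interpolated linearly from a five-concentration, 48-hour dose response in 96-well plates. GI50 marks 50% less growth.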 The source made the active and inactive calls. No stated cut-off is given here; in the data, active = GI50 up to about 1.1 µM and inactive = higher.

Legend:
Test in all cases: inhibition of tumour cell growth, NCI panel, 48 h
OVCAR-5 = test system: OVCAR-5
SNB-78 = test system: SNB-78
HCT-15 = test system: HCT-15
SF-539 = test system: SF-539
HL-60 = test system: HL-60
HT-29 = test system: HT-29
XF498 = test system: XF498
HCC 2998 = test system: HCC 2998
M14 = test system: M14
NCI-H460 = test system: NCI-H460
TK-10 = test system: TK-10
SK-MEL-5 = test system: SK-MEL-5
UACC-62 = test system: UACC-62
RPMI-8226 = test system: RPMI-8226
ACHN = test system: ACHN
UACC-257 = test system: UACC-257
LXFL 529 = test system: LXFL 529
SF-295 = test system: SF-295
MOLT-4 = test system: MOLT-4
SK-MEL-2 = test system: SK-MEL-2
OVCAR-4 = test system: OVCAR-4
COLO 205 = test system: COLO 205
HOP-92 = test system: HOP-92
HOP-18 = test system: HOP-18
K562 = test system: K562
Malme-3M = test system: Malme-3M
DMS-114 = test system: DMS-114
CAKI-1 = test system: CAKI-1
SK-MEL-28 = test system: SK-MEL-28
KM-20L2 = test system: KM-20L2
OVCAR-3 = test system: OVCAR-3
NCI-H23 = test system: NCI-H23
M19-MEL = test system: M19-MEL
OVCAR-8 = test system: OVCAR-8
786-0 = test system: 786-0
SW-620 = test system: SW-620
A498 = test system: A498
LOX IMVI = test system: LOX IMVI
HCT-116 = test system: HCT-116
IGROV-1 = test system: IGROV-1
U-251 = test system: U-251
A549 = test system: A549
DLD-1 = test system: DLD-1
DMS-273 = test system: DMS-273
HOP-62 = test system: HOP-62
KM12 = test system: KM12
CCRF-CEM = test system: CCRF-CEM
SK-OV-3 = test system: SK-OV-3
EKVX = test system: EKVX
SNB-75 = test system: SNB-75
UO-31 = test system: UO-31
SNB-19 = test system: SNB-19
SN12C = test system: SN12C
NCI-H226 = test system: NCI-H226
NCI-H522 = test system: NCI-H522
SF-268 = test system: SF-268
RXF 393 = test system: RXF 393

Measured: GI50

CC(=O)N1CCC2(C=Nc3ccccc32)CC1
> 100 µM: HCT-15
inactive: OVCAR-5 > 100 µM | SNB-78 > 100 µM | SF-539 > 100 µM | HL-60 > 100 µM | HT-29 > 100 µM | XF498 > 100 µM | HCC 2998 > 100 µM | M14 > 100 µM | NCI-H460 > 100 µM | TK-10 > 100 µM | SK-MEL-5 > 100 µM | UACC-62 > 100 µM | RPMI-8226 > 100 µM | ACHN > 100 µM | UACC-257 > 100 µM | LXFL 529 > 100 µM | SF-295 > 100 µM | MOLT-4 > 100 µM | SK-MEL-2 > 100 µM | OVCAR-4 > 100 µM | COLO 205 > 100 µM | HOP-92 > 100 µM | HOP-18 > 100 µM | K562 > 100 µM | Malme-3M > 100 µM | DMS-114 > 100 µM | CAKI-1 > 100 µM | SK-MEL-28 > 100 µM | KM-20L2 > 100 µM | OVCAR-3 > 100 µM | NCI-H23 > 100 µM | M19-MEL > 100 µM | OVCAR-8 > 100 µM | 786-0 > 100 µM | SW-620 > 100 µM | A498 > 100 µM | LOX IMVI > 100 µM | HCT-116 > 100 µM | IGROV-1 > 100 µM | U-251 > 100 µM | A549 > 100 µM | DLD-1 > 100 µM | DMS-273 > 100 µM | HOP-62 > 100 µM | KM12 > 100 µM | CCRF-CEM > 100 µM | SK-OV-3 > 100 µM | EKVX > 100 µM | SNB-75 > 100 µM

COc1cc(-c2cc(=O)c3ccccc3o2)ccc1N
27 µM: HCT-15
inactive: OVCAR-5 84.7 µM | UO-31 18.1 µM | SNB-78 > 100 µM | SNB-19 43.4 µM | SF-539 30.8 µM | HL-60 16.6 µM | SN12C 65.8 µM | HT-29 52.8 µM | NCI-H226 15.2 µM | XF498 24 µM | HCC 2998 > 100 µM | NCI-H522 20.5 µM | M14 > 100 µM | NCI-H460 37.2 µM | TK-10 > 100 µM | SK-MEL-5 41.1 µM | UACC-62 79.8 µM | RPMI-8226 45.5 µM | ACHN 47.3 µM | UACC-257 > 100 µM | SF-268 26.8 µM | LXFL 529 > 100 µM | SF-295 46.7 µM | MOLT-4 25.5 µM | SK-MEL-2 > 100 µM | OVCAR-4 54.5 µM | COLO 205 69.3 µM | HOP-92 33.8 µM | HOP-18 27.5 µM | RXF 393 41 µM | K562 60.8 µM | Malme-3M > 100 µM | DMS-114 63.5 µM | CAKI-1 11.7 µM | SK-MEL-28 > 100 µM | KM-20L2 49.5 µM | OVCAR-3 62.8 µM | NCI-H23 33.8 µM | M19-MEL > 100 µM | OVCAR-8 51.9 µM | 786-0 > 100 µM | SW-620 92.7 µM | A498 27.2 µM | LOX IMVI 51.1 µM | HCT-116 54.3 µM | IGROV-1 > 100 µM | U-251 > 100 µM | A549 52.1 µM | DMS-273 50.2 µM | HOP-62 41 µM | KM12 39.3 µM | CCRF-CEM 40.6 µM | SK-OV-3 > 100 µM | EKVX 12.8 µM | SNB-75 19.7 µM
